According to patent publication US7651978B2, “Selective herbicides based on a substituted phenylsulphonylaminocarbonyl-triazolinone” (Arysta LifeScience North America, LLC, priority 1998, dated 2010):
Where a name gives a salt, the structure may show the parent alone.

Legend:
Experiment in all cases: Post-emergence test/greenhouse
Assay type in all cases: in vivo
Setaria = details: after three weeks
Procedure: (§1) Post-Emergence Test/Greenhouse [table] To produce a suitable preparation of active compound, 1 part by weight of active compound is mixed with the stated amount of solvent, the stated amount of emulsifier is added and the concentrate is diluted with water to the desired concentration. Test plants which have a height of 5-15 cm are sprayed with the preparation of active compound such that the particular amounts of active compound desired are applied per unit area. The concentration of the spray liquor is chosen so that the particular amounts of active compound desired are applied in 500 ml of water/ha. After three weeks, the degree of damage to the plants is assessed in % damage in comparison to the development of the untreated control. The figures denote: • 0%=no effect (like untreated control) • 100%=total destruction

Agropyron = details: 60 g ai./ha, after three weeks
Procedure: as §1

Bromus = details: 60 g ai./ha, after three weeks
Procedure: as §1

Wheat = details: wheat, in vivo, 3 weeks
Procedure: as §1

Avena = details: after three weeks
Procedure: as §1

Alopecurus = details: 504 h, after three weeks, read-out: degree of damage, Alopecurus
Procedure: as §1

Lolium = details: 60 g ai./ha, after three weeks
Procedure: as §1

Veronica = details: 60 g ai./ha, after three weeks
Procedure: as §1

In the case of COc1nn(C(=O)NS(=O)(=O)c2ccccc2OC(F)(F)F)c(=O)n1C [(I)-Na-salt, 2-(2-trifluoromethoxy-phenylsulphonylaminocarbonyl)-4-methyl-5-methoxy-2,4-dihydro-3H-1,2,4-triazol-3-one], the “degree of damage, Setaria” value (Setaria; 60 g ai./ha) is reported as 100%, the “degree of damage, Setaria” value (Setaria; 125 g ai./ha) is reported as 95% and the “degree of damage, Agropyron” value (Agropyron) is reported as 70%. The “degree of damage, Bromus” value (Bromus) was 90%, the “degree of damage, Wheat” value (Wheat) was 0% and the “degree of damage, Avena” value (Avena; 60 g ai./ha) was 70%. The “degree of damage, Avena” value (Avena; 125 g ai./ha) was 90%, the pest or weed control at 60 g/ha (Alopecurus; 60 g ai./ha) was 80% and the pest or weed control at 125 g/ha (Alopecurus; 125 g ai./ha) was 90%. For the same molecule, the “degree of damage, Lolium” value (Lolium) was 90% and the “degree of damage, Veronica” value (Veronica) was 90%.
